Source: US10787425B2, “Thiazolidinedione derivative and use thereof” (INDUSTRY-ACADEMIC COOPERATION FOUNDATION CHOSUN UNIVERSITY, priority 2016, dated 2020)

Experiments:
15-PGDH = 15-PGDH (Homo sapiens (Human), UniProt P15428); assay: 15-PGDH inhibitory activity (NADH at 340 nm); type: biochemical; conditions: concentration inhibiting 50% of 15-PGDH activity; purified 15-PGDH, 21 μM PGE2, 0.25 mM NAD+
Experimental: The 15-PGDH cDNA plasmid containing the BamHI of the pGEX-2T expression vector and EcoRI restriction enzyme sites was transfected into E. coli BL-21 LysS by using conventional methods used in the art. Then, the transfected cells were cultured in an LB medium (500 ml) containing 50 μg/ml of ampicillin at a temperature of 37° C. and at a rate of 220 rpm until the OD600 reached 0.6. Then, isopropyl beta-D-thiogalactoxide (1 mM) was added and the cells were further cultured at the temperature of 25° C. for 12 hours. The cells were then centrifuged at the gravity of 4,000 g for 30 minutes at a temperature of 4° C. to collect a cell pellet. The cell pellet was dissolved in 20 ml of cell lysis buffer (containing 1×PBS buffer (pH 7.4): 1 mM EDTA and 0.1 mM DTT) and sonicated at a temperature of 4° C. for 14×10 s. The digested cells were centrifuged at the gravity of 4,000 g for 20 minutes at a temperature of 4° C. The supernatant was then slowly loaded onto a glutathione-sepharose 4B column equilibrated at a temperature of 4° C. with cell lysis buffer [containing 1×PBS buffer (pH 7.4), 1 mM EDTA, and 0.1 mM DTT]. Washing was performed thereon by using a dissolution buffer until the OD280 reached 0.005 or less. Then, 15-PGDH was eluted from the glutathione-sepharose 4B column at room temperature for 5 minutes by using an elution buffer [containing 50 mM Tris-HCl (pH 8.0), 10 mM reduced glutathione, 1 mM EDTA, and 0.1 mM DTT). The concentration of the purified enzyme was measured, and the purification level thereof was confirmed by SDS-PAGE.
That is, the cells were treated with a solution including 50 mM Tris-HCl (pH 7.5), 0.1 mM DTT, 0.25 mM (NAD+), 10 μg of purified 15-PGDH enzyme, 21 μM PGE2. and various concentrations (0.0001 μM to 64 μM) of the derivative compound according to the present disclosure. In this case, the total volume of the solution was 2 ml. Then, the absorbance of the reaction mixture was recorded at the wavelength of 340 nm. To measure the activity of the derivative compounds according to the present disclosure, which is an inhibitor of 15-PGDH, the average value of NADH absorbance at 340 nm at various concentrations was obtained from a standard curve.

A549 cells = assay: Measurement of PGE2 concentration in A549 cell medium (ELISA); type: cell-based, human; conditions: for Increment %: PGE2 concentration versus PBS control, 5 μM, 12 hours; for PGE2 concentration: inhibitor 5 μM, medium collected after 12 hours, ELISA
Experimental: A549 cells were subcultured in RPMI 1640 medium (containing+8% fetal bovine serum (FBS) and antibiotic-antimycotic (AA)) for one week, and then, inoculated in a 6-well plate at 2.5×10^5 cells/mL (5×10^5 cells/well) and cultured for 24 hours in a 5% CO2 incubator at a temperature of 37° C. A549 cells are adenocarcinomic human alveolar basal epithelial cells which are derived from lung tissues. When cells were grown to about 80% confluence, a 15-PGDH inhibitor in 1×PBS buffer was injected at a concentration of 5 μM. To compare the results, the same amount of 1×PBS buffer was injected into a negative control, and, the treated cells were cultured in 5% CO2 incubator. After 12 hours, the medium was collected and the collected medium was assayed to measure PGE2 concentration by using an ELISA Kit (Abcam) according to the manufacturer's instructions. The concentration may be expressed as an exact value by plotting the calibration curve by using the absorbance value after diluting the standard in the medium by concentration.

Chain of 15-PGDH (P15428 whole entry): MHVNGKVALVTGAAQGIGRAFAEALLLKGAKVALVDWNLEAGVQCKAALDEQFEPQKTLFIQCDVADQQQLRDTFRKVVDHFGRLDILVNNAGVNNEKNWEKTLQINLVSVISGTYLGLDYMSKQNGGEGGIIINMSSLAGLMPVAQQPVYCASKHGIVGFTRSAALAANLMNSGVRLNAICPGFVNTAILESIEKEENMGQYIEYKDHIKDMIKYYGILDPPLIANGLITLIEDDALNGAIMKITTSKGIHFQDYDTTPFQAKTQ

| Structure (SMILES) | IC50 (15-PGDH) | Increment % (A549 cells) | PGE2 concentration (A549 cells) |
| --- | --- | --- | --- |
| COc1cc(/C=C2\SC(=O)NC2=O)ccc1OC(=O)CC1CCCCC1 [Compound 37, (Z)-4-((2,4-dioxothiazolidin-5-ylidene)methyl)-2-methoxyphenyl 2-cyclohexylacetate] | 27.8 nM | 88.85% | 382.9119 pg/mL |
| O=C(O)c1ccccc1.O=C1NC(=O)/C(=C/c2cccc(OC(=O)c3ccccc3)c2Cl)S1 [Compound 86, (Z)-2-chloro-3-((2,4-dioxothiazolidin-5-ylidene)methyl)phenyl benzoate] | 54.1 nM | −12.12% | 184.9103 pg/mL |
| COc1cc(/C=C2\SC(=O)NC2=O)ccc1OC(=O)CCc1ccccc1 [Compound 43, (Z)-4-((2,4-dioxothiazolidin-5-ylidene)methyl)-2-methoxyphenyl 3-phenylpropanoate] | 28.6 nM | 113.27% | 432.4258 pg/mL |
| O=C(Cc1ccccc1)Oc1ccc(/C=C2\SC(=O)NC2=O)c(Cl)c1 [Compound 102, (Z)-3-chloro-4-((2,4-dioxothiazolidin-5-ylidene)methyl)phenyl 2-phenylacetate] | 75.3 nM | 99.2022% | 222.4242 pg/mL |
| O=C(CCCCc1ccccc1)Oc1ccc(/C=C2\SC(=O)NC2=O)c(Cl)c1 [Compound 105, (Z)-3-chloro-4-((2,4-dioxothiazolidin-5-ylidene)methyl)phenyl 5-phenylpentanoate] | 130 nM | 89.4598% | 211.5461 pg/mL |
| O=C(CCC1CCCC1)Oc1ccc(/C=C2\SC(=O)NC2=O)cc1Br [Compound 20, (Z)-2-bromo-4-((2,4-dioxothiazolidin-5-ylidene)methyl)phenyl 3-cyclopentylpropanoate] | 15.8 nM | 227.32% | 828.2384 pg/mL |
| O=C(CCCc1ccccc1)Oc1ccc(/C=C2\SC(=O)NC2=O)cc1Br [Compound 29, (Z)-2-bromo-4-((2,4-dioxothiazolidin-5-ylidene)methyl)phenyl 4-phenylbutanoate] | 14.5 nM | 367.81% | 922.5414 pg/mL |
| O=C(CCCC1CCCCC1)Oc1ccc(/C=C2\SC(=O)NC2=O)cc1Cl [Compound 9, (Z)-2-chloro-4-((2,4-dioxothiazolidin-5-ylidene)methyl)phenyl 4-cyclohexylbutanoate] | 20.2 nM | 189.34% | 792.1232 pg/mL |
| CCOc1cc(/C=C2\SC(=O)NC2=O)ccc1OC(=O)c1ccccc1.O=C(O)c1ccccc1 [Compound 56, (Z)-4-((2,4-dioxothiazolidin-5-ylidene)methyl)-2-ethoxyphenyl benzoate] | 298 nM | −31.65% | 108.7675 pg/mL |
| O=C(CCCC1CCCCC1)Oc1cccc(/C=C2\SC(=O)NC2=O)c1Cl [Compound 84, (Z)-2-chloro-3-((2,4-dioxothiazolidin-5-ylidene)methyl)phenyl 4-cyclohexylbutanoate] | 22.5 nM | 16.67% | 245.488 pg/mL |
| O=C(CCCCc1ccccc1)Oc1cccc(/C=C2\SC(=O)NC2=O)c1Cl [Compound 90, (Z)-2-chloro-3-((2,4-dioxothiazolidin-5-ylidene)methyl)phenyl 5-phenylpentanoate] | 46 nM | 98.11% | 416.8478 pg/mL |
| O=C(CCCC1CCCCC1)Oc1ccc(/C=C2\SC(=O)NC2=O)cc1Br [Compound 24, (Z)-2-bromo-4-((2,4-dioxothiazolidin-5-ylidene)methyl)phenyl 4-cyclohexylbutanoate] | 15.4 nM | 299.32% | 1010.425 pg/mL |
| O=C(CCCCc1ccccc1)Oc1ccc(/C=C2\SC(=O)NC2=O)cc1 [Compound 75, (Z)-4-((2,4-dioxothiazolidin-5-ylidene)methyl)phenyl 5-phenylpentanoate] | 92.1 nM | 23.31% | 159.2841 pg/mL |
| O=C1NC(=O)/C(=C/c2cccc(OC(=O)C3CCCC3)c2Cl)S1 [Compound 78, (Z)-2-chloro-3-((2,4-dioxothiazolidin-5-ylidene)methyl)phenyl cyclopentanecarboxylate] | 56.2 nM | −67.32% | 39.11 pg/mL |
| O=C(CCCc1ccccc1)Oc1ccc(/C=C2\SC(=O)NC2=O)c(Cl)c1 [Compound 104, (Z)-3-chloro-4-((2,4-dioxothiazolidin-5-ylidene)methyl)phenyl 4-phenylbutanoate] | 74.9 nM | 213.4577% | 349.9990 pg/mL |
| O=C(CC1CCCCC1)Oc1ccc(/C=C2\SC(=O)NC2=O)cc1Cl [Compound 7, (Z)-2-chloro-4-((2,4-dioxothiazolidin-5-ylidene)methyl)phenyl 2-cyclohexylacetate] | 23.8 nM | 20.36% | 329.5084 pg/mL |
| O=C1NC(=O)/C(=C/c2cccc(OC(=O)C3CC3)c2Cl)S1 [Compound 76, (Z)-2-chloro-3-((2,4-dioxothiazolidin-5-ylidene)methyl)phenyl cyclopropanecarboxylate] | 542 nM | 3.34% | 123.6726 pg/mL |
| O=C(CCC1CCCC1)Oc1ccc(/C=C2\SC(=O)NC2=O)cc1Cl [Compound 5, (Z)-2-chloro-4-((2,4-dioxothiazolidin-5-ylidene)methyl)phenyl 3-cyclopentylpropanoate] | 30.5 nM | 83.07% | 501.1889 pg/mL |
| O=C(CCCCc1ccccc1)Oc1ccc(/C=C2\SC(=O)NC2=O)cc1Cl [Compound 15, (Z)-2-chloro-4-((2,4-dioxothiazolidin-5-ylidene)methyl)phenyl 5-phenylpentanoate] | 44 nM | 84.11% | 220.3344 pg/mL |
| COc1cc(/C=C2\SC(=O)NC2=O)ccc1OC(=O)Cc1ccccc1 [Compound 42, (Z)-4-((2,4-dioxothiazolidin-5-ylidene)methyl)-2-methoxyphenyl 2-phenylacetate] | 42.2 nM | 97.64% | 400.7345 pg/mL |
| O=C(CCCCC1CCCCC1)Oc1ccc(/C=C2\SC(=O)NC2=O)c(Cl)c1 [Compound 100, (Z)-3-chloro-4-((2,4-dioxothiazolidin-5-ylidene)methyl)phenyl 5-cyclohexylpentanoate] | 39.4 nM | −3.7411% | 107.4803 pg/mL |
| O=C1NC(=O)/C(=C/c2ccc(OC(=O)C3CCCC3)cc2)S1 [Compound 63, (Z)-4-((2,4-dioxothiazolidin-5-ylidene)methyl)phenyl cyclopentanecarboxylate] | 179 nM | 49.33% | 237.6336 pg/mL |
| CCOc1cc(/C=C2\SC(=O)NC2=O)ccc1OC(=O)CCCC1CCCCC1 [Compound 54, (Z)-4-((2,4-dioxothiazolidin-5-ylidene)methyl)-2-ethoxyphenyl 4-cyclohexylbutanoate] | 23.8 nM | 202.57% | 828.9774 pg/mL |
| O=C(CCc1ccccc1)Oc1ccc(/C=C2\SC(=O)NC2=O)cc1Br [Compound 28, (Z)-2-bromo-4-((2,4-dioxothiazolidin-5-ylidene)methyl)phenyl 3-phenylpropanoate] | 28.4 nM | 190.32% | 572.5235 pg/mL |
